Among the data in patent publication US11554171B2, “Compounds and methods for the targeted degradation of bromodomain-containing proteins” (Arvinas Operations, Inc., priority 2015, dated 2023) are Emax and DC50 values, retold here.

This test relates to c-myc in 22RV-1 cells. The test is described as follows: Human c-myc ELISA assay. The format is cell-based. The settings on record: Homo sapiens; for Emax: 22Rv1, 18 h, read-out: Degradation of BRD4: Maximum inhibition (%) c-Myc ELISA in 22RV1 cells; for DC50: 22Rv1, read-out: Degradation of BRD4: DC50 (uM) c-Myc ELISA in 22RV1 cells. In short, it runs like this: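 22RV-1 cells treated 18 h with 8-point 1:3 compound dilutions (final top 300 nM or 1 μM, 0.1% DMSO). Cells lysed in RIPA buffer with protease/phosphatase inhibitors, and c-myc protein in cleared lysate quantified by ELISA against a standard curve. DC50 reported for c-myc suppression.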
(In an ELISA, binding on a coated surface is turned into a signal by an enzyme label.)

Some results are limits rather than exact numbers.

The DC50 is the concentration giving 50% degradation. As to `Cc1ncsc1-c1ccc([C@H](C)NC(=O)[C@@H]2C[C@@H](O)CN2C(=O)[C@@H](NC(=O)CN2CCN(C3CC4(C3)CN(C(=O)C[C@@H]3N=C(c5ccc(Cl)cc5)c5c(sc(C)c5C)-n5c(C)nnc53)C4)CC2)C(C)(C)C)cc1` [Example 360], the Emax is above 90% and the DC50 was in the range of 0.1 to 1 µM.
With `Cc1ncsc1-c1ccc([C@H](C)NC(=O)[C@@H]2C[C@@H](O)CN2C(=O)[C@@H](NC(=O)Cc2ccc(O[C@H]3C[C@@H](NC(=O)C[C@@H]4N=C(c5ccc(Cl)cc5)c5c(sc(C)c5C)-n5c(C)nnc54)C3)cc2)C(C)(C)C)cc1` [Example 185, (2S,4R)-1-[(2S)-3,3-dimethyl-2-(2-{4-[(1s,35)-3-{2-[(9S)-7-(4-chlorophenyl)-4,5,13-trimethyl-3-thia-1,8,11,12-tetraatetraazatricyclo[8.3.0.0^2,^6]trideca-2(6),4,7,10,12-pentaen-9-yl]acetamido}cyclobutoxy]phenyl}acetamido)butanoyl]-4-hydroxy-N-[(1S)-1-[4-(4-methyl-1,3-thiazol-5-yl)phenyl]ethyl]pyrrolidine-2-carboxamide], the Emax is 99.5% and the DC50 was below 0.01 µM.
On to `Cc1ncsc1-c1ccc([C@H](C)NC(=O)[C@@H]2C[C@@H](O)CN2C(=O)[C@@H](NC(=O)c2ccc(OCCCCNC(=O)C[C@@H]3N=C(c4ccc(Cl)cc4)c4c(sc(C)c4C)-n4c(C)nnc43)cn2)C(C)(C)C)cc1` [Example 115], for which the Emax turned out to be 100% and the DC50 was below 0.01 µM.
For `Cc1ncsc1-c1ccc([C@H](C)NC(=O)[C@@H]2C[C@@H](O)CN2C(=O)[C@H](C(C)C)n2cc(-c3cc(O[C@H]4C[C@@H](NC(=O)C[C@@H]5N=C(c6ccc(Cl)cc6)c6c(sc(C)c6C)-n6c(C)nnc65)C4)ccn3)cn2)cc1` [Example 302], in that order: 92% and 0.01 to 0.1 µM.
For `CC(=O)N[C@H](C(=O)N1C[C@H](O)C[C@H]1C(=O)NCc1ccc(-c2scnc2C)cc1OCCCOc1ccc(C2=N[C@@H](CC(=O)Nc3ccccc3)c3nnc(C)n3-c3sc(C)c(C)c32)cc1)C(C)(C)C` [Example 155], in that order: 65.5% and 0.1 to 1 µM.
For `Cc1ncsc1-c1ccc([C@H](C)NC(=O)[C@@H]2C[C@@H](O)CN2C(=O)[C@@H](NC(=O)CN2CCC(O[C@H]3C[C@H](NC(=O)C[C@@H]4N=C(c5ccc(Cl)cc5)c5ccccc5-c5c(C)noc54)C3)CC2)C(C)(C)C)cc1` [Example 350, (2S,4R)-1-[(2S)-3,3-dimethyl-2-(2-{4-[(1,3-trans)-3-{2-[(7S)-9-(4-chlorophenyl)-3-methyl-5-oxa-4,8-diazatricyclo[8.4.0.0^2,^6]tetradeca-1(10),2(6),3,8,11,13-hexaen-7-yl]acetamido}cyclobutoxy]piperidin-1-yl}acetamido)butanoyl]-4-hydroxy-N-[(1S)-1-[4-(4-methyl-1,3-thiazol-5-yl)phenyl]ethyl]pyrrolidine-2-carboxamide], in that order: 100% and below 0.01 µM.
Regarding `Cc1ncsc1-c1ccc([C@H](C)NC(=O)[C@@H]2C[C@@H](O)CN2C(=O)[C@@H](C(C)C)n2cc(-c3cc(F)cc(O[C@H]4C[C@@H](NC(=O)C[C@@H]5N=C(c6ccc(Cl)cc6)c6c(sc(C)c6C)-n6c(C)nnc65)C4)c3)cn2)cc1` [Example 246], the Emax came out at 83% and the DC50 lay within 0.1 to 1 µM.
Regarding `Cc1ncsc1-c1ccc([C@H](C)NC(=O)[C@@H]2C[C@@H](O)CN2C(=O)[C@@H](NC(=O)COCCOCCCOc2ccc([C@@H](C)NC(=O)C[C@@H]3N=C(c4ccc(Cl)cc4)c4c(sc(C)c4C)-n4c(C)nnc43)cc2)C(C)(C)C)cc1` [Example 30], the Emax worked out at 96% and the DC50 was in the range of 0.01 to 0.1 µM.
The corresponding values for `Cc1ncsc1-c1ccc([C@H](C)NC(=O)[C@H]2C[C@H](O)CN2C(=O)[C@@H](NC(=O)COc2ccc(O[C@H]3C[C@@H](NC(=O)C[C@@H]4N=C(c5ccc(Cl)cc5)c5c(sc(C)c5C)-n5c(C)nnc54)C3)nc2)C(C)(C)C)cc1` [Example 169] are 42.2% and above 1 µM.
For `Cc1ncsc1-c1ccc(CNC(=O)[C@@H]2C[C@@H](O)CN2C(=O)[C@@H](NC(=O)COCCCS(=O)(=O)CCNC(=O)C[C@@H]2N=C(c3ccc(Cl)cc3)c3c(sc(C)c3C)-n3c(C)nnc32)C(C)(C)C)cc1` [Example 101], in that order: 88.3% and 0.1 to 1 µM.
As for `Cc1ncsc1-c1ccc(CNC(=O)[C@@H]2C[C@@H](O)CN2C(=O)[C@@H](NC(=O)Cc2cccc(CCCCNC(=O)C[C@@H]3N=C(c4ccc(Cl)cc4)c4c(sc(C)c4C)-n4c(C)nnc43)c2)C(C)(C)C)cc1` [Example 70, (2S,4R)-1-[(2S)-2-{2-[3-(4-{2-[(9S)-7-(4-chlorophenyl)-4,5,13-trimethyl-3-thia-1,8,11,12-tetraazatricyclo[8.3.0.0^2,^6]trideca-2(6),4,7,10,12-pentaen-9-yl]acetamido}butyl)phenyl]acetamido}-3,3-dimethylbutanoyl]-4-hydroxy-N-{[4-(4-methyl-1,3-thiazol-5-yl)phenyl]methyl}pyrrolidine-2-carboxamide], the Emax was 88.8% and the DC50 is 0.01 to 0.1 µM.
Take `Cc1ncsc1-c1ccc([C@H](C)NC(=O)[C@@H]2C[C@@H](O)CN2C(=O)[C@@H](NC(=O)COCCOCCCNC(=O)C[C@@H]2N=C(c3ccc(Cl)cc3)c3c(sc(C)c3C)-n3c(C)nnc32)C(C)(C)C)cc1` [Example 147]: the Emax stood at 98.5% and the DC50 was below 0.01 µM.
Regarding `Cc1sc2c(c1C)C(c1ccc(Cl)cc1)=N[C@@H](CC(=O)N[C@H]1C[C@H](Oc3ccc(CC(=O)N[C@H](C(=O)N4C[C@H](O)C[C@H]4C(=O)N[C@@H](C)c4ccc(S(C)(=O)=O)cc4)C(C)(C)C)cc3)C1)c1nnc(C)n1-2` [Example 307], the Emax was 15% and the DC50 is above 1 µM.
For `Cc1ncsc1-c1ccc(CNC(=O)[C@@H]2C[C@@H](O)CN2C(=O)[C@@H](C(C)C)n2cc(-c3ccnc(O[C@H]4C[C@@H](NC(=O)C[C@@H]5N=C(c6ccc(Cl)cc6)c6c(sc(C)c6C)-n6c(C)nnc65)C4)c3)cn2)cc1` [Example 177, (2S,4R)-4-hydroxy-N-{[4-(4-methyl-1,3-thiazol-5-yl)phenyl]methyl}-1-[(2R)-3-methyl-2-(4-{2-[(1,3-cis)-3-{2-[(9S)-7-(4-chlorophenyl)-4,5,13-trimethyl-3-thia-1,8,11,12-tetraazatricyclo[8.3.0.0^2,^6]trideca-2(6),4,7,10,12-pentaen-9-yl]acetamido}cyclobutoxy]pyridin-4-yl}-1H-pyrazol-1-yl)butanoyl]pyrrolidine-2-carboxamide], in that order: 39.3% and above 1 µM.
The corresponding values for `Cc1ncsc1-c1ccc(CNC(=O)[C@@H]2C[C@@H](O)CN2C(=O)[C@@H](NC(=O)CCN2CCN(CCNC(=O)C[C@@H]3N=C(c4ccc(Cl)cc4)c4c(sc(C)c4C)-n4c(C)nnc43)CC2)C(C)(C)C)cc1` [Example 103] are 62.5% and 0.1 to 1 µM.
Take `Cc1ncsc1-c1ccc(CNC(=O)[C@@H]2C[C@@H](O)CN2C(=O)[C@H](c2cnn(CCCOCCNC(=O)C[C@@H]3N=C(c4ccc(Cl)cc4)c4c(sc(C)c4C)-n4c(C)nnc43)c2)C(C)C)cc1` [Example 145]: the Emax came out at 15.9% and the DC50 was above 1 µM.
The corresponding values for `Cc1ncsc1-c1ccc(CNC(=O)[C@@H]2C[C@@H](O)CN2C(=O)[C@H](C(C)C)n2cc(Oc3ccc(CNC(=O)C[C@@H]4N=C(c5ccc(Cl)cc5)c5c(sc(C)c5C)-n5c(C)nnc54)cc3)cn2)cc1` [Example 238] are 93.3% and 0.01 to 0.1 µM.
In the case of `Cc1ncsc1-c1ccc([C@H](C)NC(=O)[C@@H]2C[C@@H](O)CN2C(=O)[C@@H](NC(=O)Cc2cccc(O[C@H]3C[C@H](NC(=O)C[C@@H]4N=C(c5ccc(Cl)cc5)c5c(sc(C)c5C)-n5c(C)nnc54)C3)c2)C(C)(C)C)cc1` [Example 194], the Emax amounted to 92.4% and the DC50 was below 0.01 µM.
The corresponding values for `Cc1ncsc1-c1ccc([C@H](C)NC(=O)[C@@H]2C[C@@H](O)CN2C(=O)[C@@H](C(C)C)n2cc(-c3ccc(O[C@H]4C[C@H](NC(=O)C[C@@H]5N=C(c6ccc(Cl)cc6)c6c(sc(C)c6C)-n6c(C)nnc65)C4)nc3)cn2)cc1` [Example 268] are 98% and 0.01 to 0.1 µM.
The corresponding values for `Cc1ncsc1-c1ccc([C@H](C)NC(=O)[C@@H]2C[C@@H](O)CN2C(=O)[C@@H](NC(=O)COc2cccc(OCCNC(=O)C[C@@H]3N=C(c4ccc(Cl)cc4)c4c(sc(C)c4C)-n4c(C)nnc43)c2)C(C)(C)C)cc1` [Example 127, (2S,4R)-1-[(2S)-2-{2-[3-(2-{2-[(9S)-7-(4-chlorophenyl)-4,5,13-trimethyl-3-thia-1,8,11,12-tetraazatricyclo[8.3.0.0^2,^6]trideca-2(6),4,7,10,12-pentaen-9-yl]acetamido}ethoxy)phenoxy]acetamido}-3,3-dimethylbutanoyl]-4-hydroxy-N-[(1S)-1-[4-(4-methyl-1,3-thiazol-5-yl)phenyl]ethyl]pyrrolidine-2-carboxamide] are 99% and below 0.01 µM.
Turning to `Cc1ncsc1-c1ccc([C@H](C)NC(=O)[C@@H]2C[C@@H](OC(=O)[C@@H](N)C(C)C)CN2C(=O)[C@@H](NC(=O)c2cc3cc(O[C@H]4C[C@@H](NC(=O)C[C@@H]5N=C(c6ccc(Cl)cc6)c6c(sc(C)c6C)-n6c(C)nnc65)C4)ccc3o2)C(C)(C)C)cc1` [Example 338], the Emax worked out at 100% and the DC50 was below 0.01 µM.
Turning to `Cc1ncsc1-c1ccc([C@H](C)NC(=O)[C@@H]2C[C@@H](O)CN2C(=O)[C@@H](NC(=O)c2cc3cc(O[C@H]4C[C@@H](NC(=O)C[C@@H]5N=C(c6ccc(Cl)cc6)c6c(sc(C)c6C)-n6c(C)nnc65)C4)ccc3o2)C(C)C)cc1` [Example 336], the Emax was found to be 98% and the DC50 is below 0.01 µM.
